We go through one compound from ChEMBL document CHEMBL1158487, “Small molecule chloropyramine hydrochloride (C4) targets the binding site of focal adhesion kinase and vascular endothelial growth factor receptor 3 and suppresses breast cancer growth in vivo” (J Med Chem, 2009).

This experiment relates to BT-474. Description: Antitumor activity against human BT474 cells xenografted in nude-foxn1nu mouse assessed as reduction in tumor growth at 3 mg/kg after 14 days relative to control. The class given is functional. More on the design: scale not given: the % may be the effect or the level left.

`COc1cccc2c1C(=O)c1c(O)c3c(c(O)c1C2=O)C[C@@](O)(C(=O)CO)C[C@@H]3O[C@H]1C[C@H](N)[C@H](O)[C@H](C)O1` [DOXORUBICIN]: the Activity came out at 60%.
